For assay [1], the target named is T1, HydB (HydABCTk, electron-bifurcating [FeFe]-hydrogenase) (Thermoanaerobacter kivui, UniProt A0A097ATG4).
T1 sequence (A0A097ATG4 1-630): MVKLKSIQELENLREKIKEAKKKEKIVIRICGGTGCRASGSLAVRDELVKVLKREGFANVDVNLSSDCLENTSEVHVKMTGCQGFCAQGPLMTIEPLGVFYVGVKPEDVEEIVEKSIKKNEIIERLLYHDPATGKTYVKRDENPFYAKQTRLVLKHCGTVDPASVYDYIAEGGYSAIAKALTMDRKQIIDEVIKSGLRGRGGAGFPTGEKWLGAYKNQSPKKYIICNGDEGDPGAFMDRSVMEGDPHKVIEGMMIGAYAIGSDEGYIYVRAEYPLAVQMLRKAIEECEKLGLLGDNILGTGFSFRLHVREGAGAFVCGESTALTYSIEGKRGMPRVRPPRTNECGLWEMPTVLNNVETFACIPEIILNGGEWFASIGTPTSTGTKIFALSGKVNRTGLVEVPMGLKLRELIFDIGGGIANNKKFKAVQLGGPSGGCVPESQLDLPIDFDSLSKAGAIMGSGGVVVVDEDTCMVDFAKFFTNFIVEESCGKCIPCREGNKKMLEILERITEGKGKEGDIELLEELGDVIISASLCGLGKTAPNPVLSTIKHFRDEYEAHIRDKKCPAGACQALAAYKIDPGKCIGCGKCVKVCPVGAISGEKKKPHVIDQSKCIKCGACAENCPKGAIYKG
T1 sequence (A0A097ATG3 1-571 partner): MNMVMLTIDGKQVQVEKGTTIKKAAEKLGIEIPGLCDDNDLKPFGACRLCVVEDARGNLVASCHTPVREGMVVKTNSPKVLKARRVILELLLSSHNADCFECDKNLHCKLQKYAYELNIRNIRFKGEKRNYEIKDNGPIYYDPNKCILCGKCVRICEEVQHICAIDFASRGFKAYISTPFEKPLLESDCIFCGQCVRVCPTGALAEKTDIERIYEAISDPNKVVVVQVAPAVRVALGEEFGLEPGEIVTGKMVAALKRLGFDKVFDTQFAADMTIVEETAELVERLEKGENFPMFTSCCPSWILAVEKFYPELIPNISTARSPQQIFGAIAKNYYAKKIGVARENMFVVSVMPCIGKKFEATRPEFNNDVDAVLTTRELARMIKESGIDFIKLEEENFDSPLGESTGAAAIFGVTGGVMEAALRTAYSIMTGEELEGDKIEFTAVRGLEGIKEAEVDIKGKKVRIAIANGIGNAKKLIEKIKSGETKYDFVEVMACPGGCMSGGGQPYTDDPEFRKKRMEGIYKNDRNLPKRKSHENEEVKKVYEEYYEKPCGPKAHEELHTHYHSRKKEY
T1 sequence (A0A097ATI0 1-170 partner): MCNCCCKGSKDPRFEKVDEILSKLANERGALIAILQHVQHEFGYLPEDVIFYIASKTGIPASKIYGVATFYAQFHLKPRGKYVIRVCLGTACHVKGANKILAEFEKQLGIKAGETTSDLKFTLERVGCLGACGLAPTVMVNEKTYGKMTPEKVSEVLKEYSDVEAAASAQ
Description: cryoEM. Type of assay: binding.

Assay [2] has as its target HydB (ΔB2-HydABCTk) (Thermoanaerobacter kivui, UniProt A0A097ATG4, C82G/C86G).
Assay [3] addresses HydABC heterotrimer (protomer) of the electron-bifurcating [FeFe]-hydrogenase from Thermoanaerobacter kivui (Thermoanaerobacter kivui). Description: cryo-EM structure.
Assay [4] deals with T2, HydB subunit of the electron-bifurcating [FeFe]-hydrogenase HydABC from Thermoanaerobacter kivui (Thermoanaerobacter kivui, UniProt A0A097ATG4 1-630).
T2 sequence: T1 sequence (A0A097ATG4 1-630)
Description: cryo-EM structure.

As to `Cc1cc2nc3c(=O)[nH]c(=O)nc-3n(C[C@H](O)[C@H](O)[C@H](O)COP(=O)(O)O)c2cc1C` [FMN], the “cryoEM (reduced 3.12 A; oxidized 3.49 A, 8BEW); TLC of bound flavin” value in assay [1] is on record as “modified Rossmann fold with four (instead of six) β-sheets that noncovalently bind the FMN cofactor in a solvent-accessible cavity”. The molecule `NC(=O)c1ccc[n+]([C@@H]2O[C@H](COP(=O)(O)OP(=O)(O)OC[C@H]3O[C@@H](n4cnc5c(N)ncnc54)[C@H](OP(=O)(O)O)[C@@H]3O)[C@@H](O)[C@H]2O)c1` [NADP^+] showed a dissociation constant (Kd) in assay [2] of 65 to 71 µM. “HydABC heterotrimer (protomer) of the electron-bifurcating [FeFe]-hydrogenase from Thermoanaerobacter kivui (from UniProt A0A097ATG4 1-630; A0A097ATI0 1-170) (complex)” had a stoichiometry N in assay [3] of 2.

B1: HydC subunit of the electron-bifurcating [FeFe]-hydrogenase HydABC from Thermoanaerobacter kivui (natural protein)
chain: T1 sequence (A0A097ATI0 1-170 partner)
Regarding B1, the binding result in assay [4] was “binds”.

Broadly, the Kd is the free concentration of one partner at which half of the binding sites on the other are occupied at equilibrium, for simple one-to-one binding. A low value points to higher affinity. What is called stoichiometry N is a count of units in the complex or per binding partner.

Values taken from PMC10021017 (Journal of the American Chemical Society, 2023).
